This series in a line: gradient 5% acetonitrile 3 min, to 50% in 2 min, to 85% in 15 min, held 3 min, 100 µL/min. The settings on record: column: Zorbax Extend-C18 2.1 x 50 mm; eluents: water / acetonitrile, 0.1% formic acid. A digest of the protocol: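 Over 3 months, pure standards in mixtures of ~100 molecules were run by HPLC coupled to a quadrupole time-of-flight mass spectrometer in positive and negative ionization mode. The column was a Zorbax Extend-C18 (2.1 × 50 mm, 1.8 μm) at 100 μL/min, eluted with water and acetonitrile each holding 0.1% formic acid, with 40 μL dead and 900 μL dwell volumes. Retention time was determined from adduct peaks chosen by software and checked manually.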
In the case of `c1ccc(-c2nc(-c3ccncc3)no2)c(OC2CCN(C3CCCC3)C2)c1` (stereo not given), the RP-LC retention time was found to be 667 s.

`CCC(=O)N(C)CCc1noc(-c2ccc(C(=O)NCCN(C)C)cc2)n1` came in with an RP-LC retention time of 579 s.

`COc1ccc2[nH]cc(CCNC(=O)c3cc(S(=O)(=O)N4CCSCC4)ccc3Cl)c2c1` gave an RP-LC retention time of 880 s.

Compound `C=CCNc1nnc(SCC(=O)N2CCC(C(N)=O)CC2)s1` registered an RP-LC retention time of 572 s.

`CC(=O)c1cccc(N2C(=O)COc3ccc(Br)cc3C2C(=O)NC2CCCC2)c1` (stereo not given) gave an RP-LC retention time of 913 s.

Turning to `CCC1CN2C=NC(N3CCN(C(=O)c4nn(CC)cc4Cl)CC3)=CC2=N1` (stereo not given), the RP-LC retention time turned out to be 602 s.

In turn, `CS(=O)(=O)Nc1ccc(-c2noc(-c3cncc(Br)c3)n2)cc1` returned an RP-LC retention time of 877 s.

`Cn1c(=O)c2c(-c3cccc(Br)c3)n(Cc3ccco3)cc2n(C)c1=O`: the RP-LC retention time worked out at 971 s.

As for `Cc1csc(NC(=O)c2cc(Sc3nncn3C)ccc2N)n1`, the RP-LC retention time was found to be 700 s.

In the case of `COC(=O)c1ncn2c1C(=O)N(Cc1ccc(F)cc1)C(C)(C(=O)NC1CCCCC1)C2` (stereo not given), the RP-LC retention time was 752 s.

`COc1cc(F)ccc1-c1ccnc2nc(-c3cccs3)nn12` had an RP-LC retention time of 918 s.

The compound `O=C(c1ccc2c(c1)OCCO2)N1CCCCC1` came in with an RP-LC retention time of 839 s.

In turn, `CC(C)c1ccc(-n2nc(N3CCN(C(=O)c4ccco4)CC3)ccc2=O)cc1` showed an RP-LC retention time of 842 s.

`Cc1nc2ccccc2nc1N1CCCC1`: the RP-LC retention time was found to be 680 s.

`CCCN1C(=O)c2cc(S(=O)(=O)Nc3ccc(C)cc3)ccc2Oc2cccnc21` gave an RP-LC retention time of 1100 s.

Compound `O=C(CN1C(=O)CCCc2cc(S(=O)(=O)N3CCCCCC3)ccc21)Nc1cccc(F)c1` came in with an RP-LC retention time of 988 s.

The compound `COc1ccc(Cl)cc1NC(=O)C1(C)Oc2cccnc2NC1=O` (stereo not given) came in with an RP-LC retention time of 798 s.

`Cc1noc(C)c1Cc1ccc(C(=O)N2CCC3(CCC3O)CC2)o1` (stereo not given) showed an RP-LC retention time of 698 s.

`Cc1cccc(Nc2ccc(N3CCN(C(=O)c4ccc(Br)o4)CC3)nn2)n1` came in with an RP-LC retention time of 578 s.

Regarding `CC(Cc1ccco1)NC(=O)c1ccc2nc(Cc3ccccc3)oc2c1` (stereo not given), the RP-LC retention time was 947 s.

`COc1cc2c(cc1OC)C(C(=O)N1CCOCC1)C(c1ccc(SC)cc1)N(C)C2=O` (stereo not given) yielded an RP-LC retention time of 726 s.

As to `COc1ccc(NC(=O)CN2CCc3[nH]c4c(C)cc(C)cc4c(=O)c3C2)cc1OC`, the RP-LC retention time was found to be 922 s.

On to `O=C(C1CCN(S(=O)(=O)c2ccc(-c3ccn[nH]3)o2)CC1)N1CCN(c2ccccn2)CC1`, for which the RP-LC retention time is 594 s.

Regarding `O=C(NC1CC1)[C@@H]1C[C@H](Oc2ccccc2)CN1C(=O)C1CCC1`, the RP-LC retention time was 735 s.

Compound `Cc1ncoc1C(=O)N1CCCCCNC(=O)[C@@H]2CCC[C@@H]21` showed an RP-LC retention time of 621 s.

On to `COc1ccccc1NC(=O)N1CCCC1c1nc(-c2cccc(Cl)c2)no1` (stereo not given), for which the RP-LC retention time was found to be 941 s.

`O=C1C2N=NN(Cc3nc(-c4cccc(Br)c4)no3)C2C(=O)N1c1ccc2c(c1)CCC2` (stereo not given) returned an RP-LC retention time of 1130 s.

Consider `O=C(CCC[C@@H]1[C@H]2CCCN3CCC[C@@H](CN1C(=O)c1cccs1)[C@@H]23)NCC1CC1`, for which the RP-LC retention time stood at 586 s.

The compound `Cc1ccccc1N1CCN(S(=O)(=O)c2cc3n(c2)CCCNC3=O)CC1` showed an RP-LC retention time of 788 s.

In turn, `O=C(Cn1c(=O)nc(-c2ccccc2)c2ccccc21)N1CCN(c2ccccn2)CC1` returned an RP-LC retention time of 609 s.

`COc1ccc(-c2oc3ccc(OC)cc3c2C(=O)O)cc1` gave an RP-LC retention time of 879 s.

For the compound `CCN(c1ccc(F)cc1)S(=O)(=O)c1cc2n(c1)CCCNC2=O`, the RP-LC retention time was determined as 721 s.

Take `CCOC(=O)C1CCCN(C(=O)c2cccc3c2SCCC3=O)C1` (stereo not given): the RP-LC retention time was found to be 780 s.

Compound `CCOc1ccccc1NS(=O)(=O)c1cn(CC(C)C)c2ncccc12` returned an RP-LC retention time of 1030 s.

As for `O=c1c2nnn(Cc3ccc(Cl)cc3)c2ncn1Cc1nc(-c2ccc3c(c2)OCO3)no1`, the RP-LC retention time came to 982 s.

The compound `COc1cc(OC)c(NC(=O)Cn2ncc3c(c2=O)N(C)C(=O)CS3)cc1Cl` had an RP-LC retention time of 695 s.

`COc1ccc(-c2nnc(COc3ccc(NC(=O)c4n[nH]c5c4CCCC5)cc3)o2)cc1` returned an RP-LC retention time of 907 s.

For `COC(=O)c1c(NCc2ccccc2)c2cccc(Cl)c2[nH]c1=O`, the RP-LC retention time came out at 786 s.

On to `O=C(Nc1ccc(SCc2nnc(-c3ccc4c(c3)OCO4)o2)cc1)C1CCCCC1`, for which the RP-LC retention time amounted to 1020 s.

Turning to `COc1cc(NC(=O)CSC2CCc3ccccc3NC2=O)cc(OC)c1` (stereo not given), the RP-LC retention time is 796 s.

Consider `Cc1nnc2c(NC(=O)c3ccc(Cl)s3)cccn12`, for which the RP-LC retention time came out at 729 s.

Compound `CCc1nc(N)n(CC(=O)Nc2cc(F)ccc2C)c(=O)c1C` registered an RP-LC retention time of 620 s.

`Cc1cccc2nnc(N3CCC(C(=O)NCc4ccc(C(F)(F)F)cc4)CC3)n12` returned an RP-LC retention time of 740 s.

`CCn1c(=O)n(Cc2ccccn2)c(=O)c2cnc(-c3ccc(OC)cc3)nc21` yielded an RP-LC retention time of 880 s.

Take `Cc1ccc(CNC(=O)N2CC(Oc3ccc(-c4nc(C)no4)cc3)C2)cc1`: the RP-LC retention time is 861 s.

The compound `COc1ccc(NC(=O)N2CCN(Cc3nc4ccc(Cl)cc4o3)CC2)cc1` showed an RP-LC retention time of 713 s.

Take `CCc1cccc(NC(=O)C2CCCN(S(=O)(=O)c3c[nH]c(C(=O)N4CCCC4)c3)C2)c1` (stereo not given): the RP-LC retention time amounted to 877 s.

Compound `O=C(NC1CCCC1)N1CCc2nc(-c3ccccc3)ncc2C1` showed an RP-LC retention time of 822 s.

`COC(=O)C(Cc1ccccc1)NC(=O)N1CCCn2nc(-c3cccnc3)cc2C1` (stereo not given) gave an RP-LC retention time of 616 s.

For `CCCN1C(=O)c2cc(C(=O)NCCc3ccccc3)nn2CC1(C)C(=O)NC1CCCC1` (stereo not given), the RP-LC retention time was 864 s.

On to `CCOc1ccccc1NC(=O)C1CN(S(C)(=O)=O)CC12CCCCC2` (stereo not given), for which the RP-LC retention time turned out to be 682 s.

For the compound `CCCNC(=O)Cn1c(=O)c2cnc(-c3ccc(Cl)cc3)nc2n(C)c1=O`, the RP-LC retention time came to 909 s.

Turning to `CC(C)(C)c1cc(NCc2ccccn2)n2ncc(-c3ccccc3)c2n1`, the RP-LC retention time stood at 1230 s.

In the case of `CCc1ccccc1NC(=O)C(=O)NCC1CCN(CCOC)CC1`, the RP-LC retention time was 562 s.

`CC(CCc1ccccc1)NC(=O)C1CCN(S(=O)(=O)c2ccc3c(ccn3C)c2)CC1` (stereo not given) registered an RP-LC retention time of 882 s.

With `Cc1ccccc1Cn1cc(-c2ccncc2)cc1C(=O)NCC1CC1`, the RP-LC retention time came out at 704 s.

The compound `COc1ccc(-c2cn3cccnc3n2)cc1NC(=O)c1c(-c2ccccc2Cl)noc1C` came in with an RP-LC retention time of 770 s.

In turn, `CCOc1ccc(-c2noc(Cn3c(=O)n(C(C)C)c(=O)c4ccccc43)n2)cc1OC` yielded an RP-LC retention time of 1080 s.

`CC(=O)c1ccc(N2CCN(C(=O)CN3C(=O)C(C)(C)c4cc(C)ccc43)CC2)cc1` had an RP-LC retention time of 855 s.

`Cc1cc(N2CCN(C(=O)C(C)Oc3cccc(Cl)c3)CC2)nc2nncn12` (stereo not given) came in with an RP-LC retention time of 644 s.

For the compound `CC(C)n1c(SCC(=O)N(C)C)nnc1-c1ccc2c(c1)OCCCO2`, the RP-LC retention time was 691 s.

In the case of `CC(C)(C)c1ccc(-c2nc(N3CCCC3)c3ccccc3n2)cc1`, the RP-LC retention time came to 906 s.

In turn, `O=C(Nc1ccc(F)cc1F)N1CCc2nc(-c3ccc(F)cc3)ncc2C1` registered an RP-LC retention time of 932 s.

Consider `O=C(Nc1ccc(F)cc1)c1c(O)c2cccnc2n(-c2ccccc2)c1=O`, for which the RP-LC retention time was 1240 s.

Compound `CC(C)COC(=O)c1ccc(NC(=O)C2C3CCC(C3)C2C(=O)O)cc1` (stereo not given) showed an RP-LC retention time of 901 s.

`COc1ccc(-n2ccc(=O)c(-c3nc(-c4ccccc4F)no3)n2)cc1` gave an RP-LC retention time of 822 s.

With `Cc1ccc(Nc2c(-c3ccc(Br)cc3)nc3cnccn23)cc1Cl`, the RP-LC retention time came out at 1180 s.

`CN(C)CCNC(=O)Cc1cccn1-c1ccc(Cl)cc1` came in with an RP-LC retention time of 618 s.

In turn, `CCC(=O)N1CCc2cn(C)c3cccc(c23)C1` gave an RP-LC retention time of 768 s.

`COc1cccc(Nc2cc(C(=O)N3CCSCC3)nc3ccc(C)cc23)c1` displayed an RP-LC retention time of 694 s.

`C=CCn1nnc(NCc2ccc(-c3ccc(Br)cc3Br)o2)n1` returned an RP-LC retention time of 1200 s.

Take `O=C(NCc1ccco1)N1CCN(Cc2nc3cccnc3n2-c2cccc(F)c2)CC1`: the RP-LC retention time stood at 636 s.

Compound `CCc1nc2cc(-c3noc(Cc4c(F)cccc4Cl)n3)ccc2o1` showed an RP-LC retention time of 1150 s.

`O=C(NCCN1CCN(c2ccc(Cl)cc2)CC1)C1CC1` had an RP-LC retention time of 576 s.

Consider `N#CC1=C2CCCCC2(O)NC1=O` (stereo not given), for which the RP-LC retention time worked out at 655 s.

`CCN1C(=O)c2cccnc2Sc2cc(NC(=O)c3cccnc3)ccc21` yielded an RP-LC retention time of 637 s.

On to `Cc1oc(C(C)C)nc1C(=O)NCc1ccccc1C(F)(F)F`, for which the RP-LC retention time came to 1050 s.

The compound `CCN(Cc1ccccc1)C(=O)CN1C(=O)CCCc2cc(S(=O)(=O)N3CCOCC3)ccc21` showed an RP-LC retention time of 825 s.

`Cc1cc(-c2nnc(-c3ccccc3)o2)c(C)n1CC(=O)Nc1ccccc1F`: the RP-LC retention time is 952 s.

Regarding `Cc1nn2c(CNS(=O)(=O)c3ccc(F)cc3)c(-c3ccccc3)nc2s1`, the RP-LC retention time came to 859 s.
